Data: US6855710B2, “Substituted indolines with an inhibitory effect on various kinases and complexes of CDKs” (Boehringer Ingelheim Pharma KG, priority 1998, dated 2005)
Where two headings read alike, the source gives them in different places.

Experiments:
[1] = system: Leimyosarcoma tumour cell line SK-UT-1B; assay: Inhibition of the proliferation of cultivated human tumour cells (Test 2); assay type: cell-based; conditions: SK-UT-1B cells, 48 hours' incubation, then 14C-thymidine for a further 24 hours, inhibition of incorporated 14C-thymidine, read-out: Inhibition of SKUT-1B-proliferation IC50
Protocol: Inhibition of the Proliferation of Cultivated Human Tumour Cells
Cells of the Leimyosarcoma tumour cell line SK-UT-1B (obtained from the American Type Culture Collection (ATCC)) were cultivated in Minimum Essential Medium with non-essential amino acids (Gibco), supplemented with sodium pyruvate (1 mmol), glutamine (2 mmol) and 10% foetal calf serum (Gibco) and harvested during the log-growth phase. Then the SK-UT-1B cells were added to Cytostar® multi-well plates (Amersham) at a density of 4000 cells per well and incubated overnight in an incubator. Various concentrations of the compounds (dissolved in DMSO; final concentration: <1%) were added to the cells. After 48 hours' incubation ^14C-thymidine (Amersham) was added to each well and incubation was continued for a further 24 hours. The quantity of ^14C-thymidine incorporated into the tumour cells in the presence of the inhibitor and representing the number of cells in the S phase was measured in a Wallace 1450 Microbeta Liquid Scintillation Counter. IC50 values for the inhibition of proliferation (=inhibition of incorporated ^14C-thymidine) were calculated, correcting for the background radiation. All the measurements were done twice.
The Table which follows contains the results obtained in in vitro test 2: […]

SMILES	IC50 ([1]; Homo sapiens, Skut1B) [nM]	melting point [°C]	IC50 [1] [nM]
O=C1Nc2ccc([N+](=O)[O-])cc2/C1=C(/Nc1ccc(CCN2CCOCC2)cc1)c1ccccc1 [Example 133, (Z)-3-{1-[4-(2-morpholinoethyl)-phenylamino]-1-phenyl-methylidene}-5-nitro-2-indolinone]	480	304 to 306	
O=C1Nc2ccc([N+](=O)[O-])cc2/C1=C(/Nc1ccc(CN2CCCCC2)cc1)c1ccccc1 [Example 170, (Z)-3-[1-(4-piperidinomethyl-phenylamino)-1-phenyl-methylidene]-5-nitro-2-indolinone]	220	242 to 243	
CN(C)CCc1ccc(N/C(=C2\C(=O)Nc3ccc([N+](=O)[O-])cc32)c2ccccc2)cc1 [Example 134, (Z)-3-{1-[4-(2-dimethylamino-ethyl)-phenylamino]-1-phenyl-methylidene}-5-nitro-2-indolinone]	560	238 to 240	
CN(C)CCN(c1ccc(N/C(=C2\C(=O)Nc3ccccc32)c2ccccc2)cc1)S(C)(=O)=O [Example 188]			150
CN(C)Cc1ccc(N/C(=C2\C(=O)Nc3ccc([N+](=O)[O-])cc32)c2ccccc2)cc1 [Example 117, (Z)-3-[1-(4-dimethylaminomethyl-phenylamino)-1-phenyl-methylidene]-5-nitro-2-indolinone]	340	264 to 265	
CCCCS(=O)(=O)N(CC(=O)N(C)C)c1ccc(N/C(=C2\C(=O)Nc3ccccc32)c2ccccc2)cc1 [Example 306, (Z)-3-{1-[4-(N-(dimethylaminocarbonylmethyl)-N-butylsulphonyl-amino)-phenylamino]-1-phenyl-methylidene}-2-indolinone]		121 to 123	
COc1ccc(/C(Nc2ccc(CN(C)C)cc2)=C2/C(=O)Nc3ccccc32)cc1 [Example 215, (Z)-3-[1-(4-dimethylaminomethyl-phenylamino)-1-(4-methoxyphenyl)-methylidene]-2-indolinone]		206 to 207	
COc1ccc(/C(Nc2ccc(CN3CCCCC3)cc2)=C2/C(=O)Nc3ccc([N+](=O)[O-])cc32)cc1 [Example 441, (Z)-3-[1-(4-piperidinomethyl-phenylamino)-1-(4-methoxyphenyl)-methylidene]-5-nitro-2-indolinone]		230 to 233	
CN(C)CCN(C)C(=O)c1ccc(N/C(=C2\C(=O)Nc3ccccc32)c2ccccc2)cc1 [Example 391, (Z)-3-{1-[4-(N-(2-dimethylaminoethyl)-N-methyl-aminocarbonyl)-phenylamino]-1-phenyl-methylidene}-2-indolinone]		181 to 183	
